Assay [1] concerns the target T1, wild-type human androgen receptor (Homo sapiens, UniProt P10275).
T1 construct: expressed in transfected cells
T1 sequence (P10275 1-920): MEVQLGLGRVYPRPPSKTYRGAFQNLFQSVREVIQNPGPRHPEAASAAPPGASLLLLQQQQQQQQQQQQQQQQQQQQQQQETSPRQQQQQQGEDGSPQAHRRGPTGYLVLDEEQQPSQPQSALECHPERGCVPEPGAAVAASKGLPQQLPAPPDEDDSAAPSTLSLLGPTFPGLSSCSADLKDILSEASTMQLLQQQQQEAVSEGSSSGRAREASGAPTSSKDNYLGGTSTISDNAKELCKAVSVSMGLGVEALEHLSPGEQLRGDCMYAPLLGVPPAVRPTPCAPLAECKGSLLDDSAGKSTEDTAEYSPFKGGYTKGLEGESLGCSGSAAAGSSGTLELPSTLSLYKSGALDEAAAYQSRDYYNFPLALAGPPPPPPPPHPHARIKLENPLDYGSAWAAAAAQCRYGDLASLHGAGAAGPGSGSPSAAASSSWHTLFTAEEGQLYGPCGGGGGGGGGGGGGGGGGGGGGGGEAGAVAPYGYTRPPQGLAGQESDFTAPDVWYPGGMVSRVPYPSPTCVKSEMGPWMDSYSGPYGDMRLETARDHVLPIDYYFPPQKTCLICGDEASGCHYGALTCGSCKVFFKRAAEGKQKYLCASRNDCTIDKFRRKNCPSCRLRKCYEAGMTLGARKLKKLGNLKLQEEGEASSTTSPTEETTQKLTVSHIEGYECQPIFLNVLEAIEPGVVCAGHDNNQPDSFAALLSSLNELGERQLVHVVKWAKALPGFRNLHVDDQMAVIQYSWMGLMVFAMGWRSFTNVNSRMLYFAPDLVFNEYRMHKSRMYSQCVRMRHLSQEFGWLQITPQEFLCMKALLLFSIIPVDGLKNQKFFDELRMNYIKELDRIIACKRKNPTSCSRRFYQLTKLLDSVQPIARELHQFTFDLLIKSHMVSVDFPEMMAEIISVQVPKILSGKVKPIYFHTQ
Put plainly: Cell-based transactivation assay for wild-type human androgen receptor (PC-3 cells, MMTV-luciferase reporter).
Description: Cell-Based Transactivation Assay for Wild-Type Human Androgen Receptor
PC-3 cells (Kaighn et al., Invest. Urol. 17:16-23, 1979) stably transfected with the human androgen receptor (Swiss-Prot Acc. No. P10275, Entry Version 159, Sequence Version 2) and a reporter plasmid based on pGL4.14 (#E6691, Promega Corporation, Madison, Wis., USA) containing the MMTV promoter (Cato et al., EMBO J. 6:363-8, 1987) were used. They were grown in 5% charcoal-stripped medium and seeded at a concentration of 1000 cells per well in a 384-well plate. For determination of antagonistic activity, the plate additionally contained the compound to be tested at a concentration range varying from 5.12×10^−12 to 1×10^−5 M. The assay was performed in presence of 1×10^−10 R1881 (also known as methyltrienolone). After overnight incubation at 37° C. in a 5% CO2 atmosphere, 15 μl of Steady Glo Lysis and Detection reagent (Steady Glo Luciferase assay system E2550 from Promega Corporation. Madison, Wis., USA) were added. IC50 was calculated for anti-androgenic activity as well as percentage inhibition in presence of 2 μM compound in comparison to non-stimulated luciferase signal. Agonistic activity was determined using the same concentration range of compound in the absence of R1881 by measuring Luciferase activity as above. EC50 was calculated for androgenic activity. Assay/read plates were used (Polystyrol; 384, NV-white cell culture plates; Perkin Elmer).

Assay [2] has as its target T2, human androgen receptor W741L mutant (Homo sapiens, UniProt P10275, W742L).
T2 construct: expressed in transfected cells; host or cells: PC-3 cells, transient transfection with a pSG5-derived plasmid
T2 sequence (P10275 1-920 W742L): T1 sequence (P10275 1-920) with W742L
Description: Cell-based transactivation assay for human androgen receptor mutant W741L.
Description: Cell-Based Transactivation Assay for Human Androgen Receptor Mutant W741L or W741C
PC-3 cells (Kaighn et al., Invest. Urol. 17:16-23, 1979) were grown in 5% charcoal-stripped medium and seeded at a concentration of 10000 cells per well in a 96-well plate. They were transiently transfected with a pSG5-derived plasmid (#216201 from Stratagene, La Jolla, Calif., USA) coding for the human androgen receptor W741L or W741C mutant Mara et al., Cancer Research, 63: 149-153, 2003) and an MMTV-Luciferase reporter plasmid based on pGL4.14 14 (#E6691, Promega Corporation, Madison, Wis., USA). The compound to be tested was added at a concentration range varying from 1×10^−9 to 1×10 M together with 1×10^−10 R1881. After 24 h incubation at 37° C. in a 5% CO2 atmosphere, 100 μl of Steady Glo Lysis and Detection reagent (Steady Glo Luciferase assay system E2550 from Promega Corporation. Madison, Wis., USA) were added. Antagonistic activity was determined by measuring Luciferase activity in a Victor 3 Luminometer (PerkinElmer, Waltham, Mass., USA) using the Steady Glo Luciferase Assay (E2550, Promega). IC50 values were calculated for anti-androgenic activity.

The subject of the next assay is VCaP cells. Description: Proliferation assay with VCaP cells. It counts as cell-based. To be noted: Homo sapiens, 168 h, R1881 (1×10^−10) stimulated growth, day 7, read-out: Antiproliferative activity VCaP IC50. How it is done:
Proliferation Assay with VCaP Cells
VCaP cells ((Korenchuk et al., In Vivo 15: 163-168, 2001)) were seeded at 16 000 cells/well in 96-well plates in DMEM (F0445, Biochrom AG, Berlin, Germany) with phenol red supplemented with 10% charcoal-stripped serum. After 1 day, the cells were treated with R1881 (1×10^−10) and compound (day 0). Cell number was determined by Alamar Blue (DAL1100, Invitrogen, Life Technologies, Lohne, Germany) staining (2.5 h) at day 0 and day 7. Fluorescence was determined in Victor3 (Excitation 530 nm; emission 590 nm). Stimulated growth was defined as the signal measured at day 7 for cells treated only with R1881. Basal level was defined as the signal measured at day 7 for cells grown without R1881.

Changes are numbered by the printed parent chain. pEC50, pIC50: −log10 of the molar value. Where only a bound is given, the exact number is not on record here.

EC50 and IC50 data for 17 compounds are collected here from patent US20120251551A1, “Substituted (Heteroarylmethyl)thiohydantoins” (BAYER PHARMA AKTIENGESELLSCHAFT, priority 2009, published 2012).

The pEC50 is −log10 of the EC50, conventionally taken in molar units. A higher pEC50 goes with a low EC50. `COCCOc1ccc(CN2C(=S)N(c3ccc(C#N)c(C(F)(F)F)c3)C(=O)C2(C)C)cn1` [Example 11, 4-(3-{[6-(2-Methoxyethoxy)pyridin-3-yl]methyl}-4,4-dimethyl-5-oxo-2-thioxoimidazolidin-1-yl)-2-(trifluoromethyl)benzonitrile] had a pEC50 in assay [1] below 5.00.

As to `CN1CCCN(c2ccc(CN3C(=S)N(c4ccc(C#N)c(C(F)(F)F)c4)C(=O)C3(C)C)cn2)CC1` [Example 12, 4-(4,4-Dimethyl-3-{[6-(4-methyl-1,4-diazepan-1-yl)pyridin-3-yl]methyl}-5-oxo-2-thioxoimidazolidin-1-yl)-2-(trifluoromethyl)benzonitrile], in assay [1], the pEC50 is below 5.00.

In assay [1], `CC1(C)C(=O)N(c2ccc(C#N)c(C(F)(F)F)c2)C(=S)N1Cc1ccc(N2CCC(CO)CC2)nc1` [Example 14, 4-[3-({6-[4-(Hydroxymethyl)piperidin-1-yl]pyridin-3-yl}methyl)-4,4-dimethyl-5-oxo-2-thioxoimidazolidin-1-yl]-2-(trifluoromethyl)benzonitrile] had a pEC50 of 5.22.

By pIC50 is commonly meant the negative decadic logarithm of the IC50, by convention in mol/L. Consider `CC1(C)C(=O)N(c2ccc(C#N)c(C(F)(F)F)c2)C(=S)N1Cc1ccc(N2CCNC2=O)nc1` [Example 25, 4-(4,4-Dimethyl-5-oxo-3-{[6-(2-oxoimidazolidin-1-yl)pyridin-3-yl]methyl}-2-thioxoimidazolidin-1-yl)-2-(trifluoromethyl)benzonitrile], for which the pEC50 in assay [1] was below 5.00. Besides, in assay [2], the pIC50 is 6.61.

As for `CC1(C)C(=O)N(c2ccc(C#N)c(C(F)(F)F)c2)C(=S)N1Cc1ccc(N=[S@](C)(=O)c2ccccc2)nc1` [Example 26, (R)-4-{4,4-Dimethyl-3-[(6-{[methyl(oxido)phenyl-λ^6-sulfanylidene]amino}pyridin-3-yl)methyl]-5-oxo-2-thioxoimidazolidin-1-yl}-2-(trifluoromethyl)benzonitrile], in assay [1], the pEC50 is below 5.00. Further, the pIC50 in assay [2] is 6.68.

Compound `Cc1ccnn1-c1ccc(CN2C(=S)N(c3ccc(C#N)c(C(F)(F)F)c3)C(=O)C2(C)C)cn1` [Example 27, 4-(4,4-Dimethyl-3-{[6-(5-methyl-1H-pyrazol-1-yl)pyridin-3-yl]methyl}-5-oxo-2-thioxoimidazolidin-1-yl)-2-(trifluoromethyl)benzonitrile] showed a pEC50 in assay [1] below 5.00.

`CC1(C)C(=O)N(c2ccc(C#N)c(C(F)(F)F)c2)C(=S)N1Cc1ccc(OCC(F)(F)CO)nc1` [Example 28, 4-(3-{[6-(2,2-Difluoro-3-hydroxypropoxy)pyridin-3-yl]methyl}-4,4-dimethyl-5-oxo-2-thioxoimidazolidin-1-yl)-2-(trifluoromethyl)benzonitrile] gave a pEC50 in assay [1] below 5.00.

As for `CC1(C)C(=O)N(c2ccc(C#N)c(C(F)(F)F)c2)C(=S)N1Cc1ccc(-n2ccnn2)nc1` [Example 29, 4-(4,4-Dimethyl-5-oxo-2-thioxo-3-{[6-(1H-1,2,3-triazol-1-yl)pyridin-3-yl]methyl}imidazolidin-1-yl)-2-(trifluoromethyl)benzonitrile], the negative-log EC50 (pEC50) in assay [1] is below 5.00.

For `CC1(C)C(=O)N(c2ccc(C#N)c(C(F)(F)F)c2)C(=S)N1Cc1ccc(-n2nccn2)nc1` [Example 30, 4-(4,4-Dimethyl-5-oxo-2-thioxo-3-{[6-(2H-1,2,3-triazol-2-yl)pyridin-3-yl]methyl}imidazolidin-1-yl)-2-(trifluoromethyl)benzonitrile], the pEC50 in assay [1] is below 5.00.

`CC1(C)C(=O)N(c2ccc(C#N)c(C(F)(F)F)c2)C(=S)N1Cc1ccc(-n2cnnn2)nc1` [Example 31, 4-(4,4-Dimethyl-5-oxo-3-{[6-(1H-tetrazol-1-yl)pyridin-3-yl]methyl}-2-thioxoimidazolidin-1-yl)-2-(trifluoromethyl)benzonitrile] gave a pEC50 in assay [1] below 5.00. This compound had a pIC50 in assay [2] of at most 6.00.

In turn, `CC1(C)C(=O)N(c2ccc(C#N)c(C(F)(F)F)c2)C(=S)N1Cc1ccc(-n2cnc(Cl)c2Cl)nc1` [Example 32, 4-(3-{[6-(4,5-Dichloro-1H-imidazol-1-yl)pyridin-3-yl]methyl}-4,4-dimethyl-5-oxo-2-thioxoimidazolidin-1-yl)-2-(trifluoromethyl)benzonitrile] showed a pEC50 in assay [1] below 5.00.

In turn, `CC1(C)C(=O)N(c2ccc(C#N)c(C(F)(F)F)c2)C(=S)N1Cc1ccc(-n2cnc(C(F)(F)F)n2)nc1` [Example 33, 4-[4,4-Dimethyl-5-oxo-2-thioxo-3-({6-[3-(trifluoromethyl)-1H-1,2,4-triazol-1-yl]pyridin-3-yl}methyl)imidazolidin-1-yl]-2-(trifluoromethyl)benzonitrile] had a negative logarithm of the EC50 (pEC50) in assay [1] below 5.00.

As for `CC1(C)C(=O)N(c2ccc(C#N)c(C(F)(F)F)c2)C(=S)N1Cc1ccc(-n2cnc(CO)c2)nc1` [Example 34, 4-[3-({6-[4-(Hydroxymethyl)-1H-imidazol-1-yl]pyridin-3-yl}methyl)-4,4-dimethyl-5-oxo-2-thioxoimidazolidin-1-yl]-2-(trifluoromethyl)benzonitrile], the pIC50 in the assay with VCaP cells was 6.48; in assay [2], 6.59. This compound also had a pEC50 in assay [1] below 5.00.

Take `CC1(C)C(=O)N(c2ccc(C#N)c(C(F)(F)F)c2)C(=S)N1Cc1ccc(OCCN2CCNC2=O)nc1` [Example 35, 4-[4,4-Dimethyl-5-oxo-3-({6-[2-(2-oxoimidazolidin-1-yl)ethoxy]pyridin-3-yl}methyl)-2-thioxoimidazolidin-1-yl]-2-(trifluoromethyl)benzonitrile]: the pEC50 in assay [1] was below 5.00. The same compound showed a negative-log IC50 (pIC50) in assay [2] of 7.35.

Regarding `CC1(C)C(=O)N(c2ccc(C#N)c(C(F)(F)F)c2)C(=S)N1Cc1ccc(N2CCS(=O)(=NC#N)CC2)nc1` [Example 36, {4-[5-({3-[4-Cyano-3-(trifluoromethyl)phenyl]-5,5-dimethyl-4-oxo-2-thioxoimidazolidin-1-yl}methyl)pyridin-2-yl]-1-oxido-1λ^6,4-thiomorpholin-1-ylidene}cyanamide], the pIC50 in the assay on VCaP cells was 6.48; in assay [2] it was at most 6.00. In assay [1], this compound gave a pEC50 below 5.00.

Regarding `Cc1nc(OCC(C)(C)O)ccc1CN1C(=S)N(c2ccc(C#N)c(C(F)(F)F)c2)C(=O)C1(C)C` [Example 37, 4-(3-{[6-(2-Hydroxy-2-methylpropoxy)-2-methylpyridin-3-yl]methyl}-4,4-dimethyl-5-oxo-2-thioxoimidazolidin-1-yl)-2-(trifluoromethyl)benzonitrile], the pIC50 in the assay with VCaP cells is 6.49; in assay [2] it was 6.62. This compound also had a negative-log EC50 (pEC50) in assay [1] below 5.00.

In turn, `Cc1nnnn1-c1ccc(CN2C(=S)N(c3ccc(C#N)c(C(F)(F)F)c3)C(=O)C2(C)C)cn1` [Example 38, 4-(4,4-Dimethyl-3-{[6-(5-methyl-1H-tetrazol-1-yl)pyridin-3-yl]methyl}-5-oxo-2-thioxoimidazolidin-1-yl)-2-(trifluoromethyl)benzonitrile] showed a pEC50 in assay [1] below 5.00. Also, the pIC50 in assay [2] is 6.44.
